Source: ChEMBL document CHEMBL1137750, “Synthesis and biological evaluation of 4,5-diphenyloxazolone derivatives on route towards selective COX-2 inhibitors” (Eur J Med Chem, 2009)

Key:
[1] = target: T1, Prostaglandin G/H synthase 1 (Ovis aries) (UniProt P05979); experiment: Inhibition of ovine COX1 at 10 uM by enzyme immunoassay relative to control
T1 sequence (whole entry): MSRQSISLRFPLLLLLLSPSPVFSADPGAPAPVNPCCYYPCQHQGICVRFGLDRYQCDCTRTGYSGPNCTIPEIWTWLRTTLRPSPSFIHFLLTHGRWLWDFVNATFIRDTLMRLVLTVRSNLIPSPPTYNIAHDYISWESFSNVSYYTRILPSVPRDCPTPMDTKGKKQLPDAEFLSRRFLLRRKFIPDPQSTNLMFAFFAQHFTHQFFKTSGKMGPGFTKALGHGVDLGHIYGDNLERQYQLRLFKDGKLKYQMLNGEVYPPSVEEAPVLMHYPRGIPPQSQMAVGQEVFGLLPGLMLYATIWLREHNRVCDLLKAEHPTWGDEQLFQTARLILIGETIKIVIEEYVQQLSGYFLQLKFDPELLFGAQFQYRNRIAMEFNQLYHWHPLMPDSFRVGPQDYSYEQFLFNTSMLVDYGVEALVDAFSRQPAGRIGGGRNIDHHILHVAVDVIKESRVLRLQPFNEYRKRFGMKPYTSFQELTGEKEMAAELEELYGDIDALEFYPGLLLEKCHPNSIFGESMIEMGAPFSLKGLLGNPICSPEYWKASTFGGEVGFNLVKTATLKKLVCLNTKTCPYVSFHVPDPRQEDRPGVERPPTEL

Ovis aries = organism: Ovis aries; experiment: Selectivity index, raio of IC50 for ovine COX1 to IC50 for ovine COX2
[2] = target: T1, Prostaglandin G/H synthase 1 (Ovis aries); experiment: Inhibition of ovine COX1 at 100 uM by enzyme immunoassay relative to control
[3] = target: T2, Prostaglandin G/H synthase 2 (Homo sapiens) (UniProt P35354); experiment: Inhibition of COX2 in LPS-stimulated human whole blood assessed as PGE2 production by enzyme immunoassay; assay type: tissue-based; details: concentration not given here
T2 sequence (whole entry): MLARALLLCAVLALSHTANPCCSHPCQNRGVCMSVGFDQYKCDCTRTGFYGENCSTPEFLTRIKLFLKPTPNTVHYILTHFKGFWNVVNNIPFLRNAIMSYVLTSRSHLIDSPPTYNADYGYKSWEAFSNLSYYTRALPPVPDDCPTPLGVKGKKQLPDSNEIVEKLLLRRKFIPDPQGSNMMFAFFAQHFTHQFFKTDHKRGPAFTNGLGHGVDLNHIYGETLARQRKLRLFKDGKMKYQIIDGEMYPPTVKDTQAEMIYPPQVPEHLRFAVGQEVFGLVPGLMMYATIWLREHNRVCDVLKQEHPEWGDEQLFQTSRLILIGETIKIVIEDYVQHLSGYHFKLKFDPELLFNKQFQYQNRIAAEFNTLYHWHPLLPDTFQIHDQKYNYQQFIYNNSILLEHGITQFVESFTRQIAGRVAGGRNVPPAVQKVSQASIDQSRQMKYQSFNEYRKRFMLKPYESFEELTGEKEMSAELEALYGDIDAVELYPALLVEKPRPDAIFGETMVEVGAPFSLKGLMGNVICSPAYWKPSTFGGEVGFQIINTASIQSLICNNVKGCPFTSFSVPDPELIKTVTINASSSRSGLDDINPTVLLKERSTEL

[4] = target: T3, Prostaglandin G/H synthase 1 (Ovis aries, UniProt P05979); experiment: Inhibition of ovine COX1 by enzyme immunoassay
T3 sequence (P05979 whole entry): T1 sequence (whole entry)

[5] = target: Prostaglandin G/H synthase 1 (Homo sapiens) (UniProt P23219); experiment: Inhibition of COX1 in human whole blood assessed as TXB2 production at 10 uM by enzyme immunoassay
Sequence of Prostaglandin G/H synthase 1 (Homo sapiens) (P23219 whole entry): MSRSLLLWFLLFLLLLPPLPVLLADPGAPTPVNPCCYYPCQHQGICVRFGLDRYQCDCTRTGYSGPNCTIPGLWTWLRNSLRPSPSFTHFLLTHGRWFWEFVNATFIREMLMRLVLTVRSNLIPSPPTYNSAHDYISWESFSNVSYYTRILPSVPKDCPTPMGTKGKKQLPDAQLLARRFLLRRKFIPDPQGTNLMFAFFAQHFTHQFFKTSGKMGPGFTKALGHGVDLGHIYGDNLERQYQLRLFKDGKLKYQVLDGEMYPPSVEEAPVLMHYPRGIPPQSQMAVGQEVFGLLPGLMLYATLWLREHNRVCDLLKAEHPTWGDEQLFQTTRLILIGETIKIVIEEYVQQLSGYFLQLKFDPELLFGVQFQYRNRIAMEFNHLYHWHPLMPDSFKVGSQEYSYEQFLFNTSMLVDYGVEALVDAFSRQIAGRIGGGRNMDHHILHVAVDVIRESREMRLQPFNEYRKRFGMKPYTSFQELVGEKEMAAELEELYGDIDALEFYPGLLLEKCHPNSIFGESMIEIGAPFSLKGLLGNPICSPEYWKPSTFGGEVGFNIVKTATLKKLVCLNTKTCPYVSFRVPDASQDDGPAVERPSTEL

SMILES	inhibition [1]	Ratio IC50 (Ovis aries)	inhibition [2]	inhibition [3]	IC50 [4]	inhibition [5]
COc1ccc2c(c1)c(CC(=O)O)c(C)n2C(=O)c1ccc(Cl)cc1	71.9%	–	–	–	–	–
Cn1c(-c2ccccc2)c(-c2ccc(S(N)(=O)=O)cc2)oc1=O	3.56%	> 50	19.3%	85%	> 100 µM	7%
